Measured values reported in patent US20080269241A1, “BICYCLIC AMINOPROPYL TETRAHYDRO-PYRAZOLO-PYRIDINE MODULATORS OF CATHEPSIN S” (priority 2007, published 2008).

target: T1, human cathepsin S (CatS) (Homo sapiens, UniProt P25774); test: Recombinant human cathepsin S (CatS) fluorogenic substrate inhibition assay; type: biochemical; settings: recombinant human CatS, 10 μM Z-Valine-Valine-Arginine-AMC, pH 5.0; average of results obtained; read-out: CatS IC50
T1 construct: made in house; host or cells: baculovirus system (insect cells)
Experimental: Recombinant human cathepsin S (CatS) was expressed in the baculovirus system and purified in one step with a thiopropyl-sepharose column. […] The assay is run in 150 mM sodium acetate pH 5.0 containing 1.5 mM DTT and 150 mM NaCl. […] Measurements are taken every min for 20 min. The rate is calculated from the slope of the increase in fluorescence and the percent inhibition is calculated from this.

T1 sequence (P25774 115-331): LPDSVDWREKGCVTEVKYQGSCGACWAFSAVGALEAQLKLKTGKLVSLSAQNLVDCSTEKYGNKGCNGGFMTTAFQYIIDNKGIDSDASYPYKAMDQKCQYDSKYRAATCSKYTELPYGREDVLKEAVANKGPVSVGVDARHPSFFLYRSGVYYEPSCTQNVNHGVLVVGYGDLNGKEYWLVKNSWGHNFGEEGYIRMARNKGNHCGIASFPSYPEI

| Structure (SMILES) | IC50 [nM] |
| --- | --- |
| CS(=O)(=O)N1CCc2c(c(-c3ccc(C(F)(F)F)c(CNC(=O)c4ccc5[nH]c(=O)[nH]c5c4)c3)nn2CC(O)CN2CCC(N3CCCC3=O)CC2)C1 (centres unmarked) [Example 120, 2-Oxo-2,3-dihydro-1H-benzoimidazole-5-carboxylic acid 5-(1-{2-hydroxy-3-[4-(2-oxo-pyrrolidin-1-yl)-piperidin-1-yl]-propyl}-5-methanesulfonyl-4,5,6,7-tetrahydro-1H-pyrazolo[4,3-c]pyridin-3-yl)-2-trifluoromethyl-benzylamide] | 140 |
| CS(=O)(=O)N1CCc2c(c(-c3ccc(C(F)(F)F)c(CNC(=O)c4ccc(-c5ccccn5)s4)c3)nn2CC(O)CN2CCC(N3CCCC3=O)CC2)C1 (centres unmarked) [Example 121, 5-Pyridin-2-yl-thiophene-2-carboxylic acid 5-(1-{2-hydroxy-3-[4-(2-oxo-pyrrolidin-1-yl)-piperidin-1-yl]-propyl}-5-methanesulfonyl-4,5,6,7-tetrahydro-1H-pyrazolo[4,3-c]pyridin-3-yl)-2-trifluoromethyl-benzylamide] | 150 |
| CN1CCOc2cc(C(=O)NCc3cc(-c4nn(CC(O)CN5CCC(N6CCCC6=O)CC5)c5c4CN(S(C)(=O)=O)CC5)ccc3C(F)(F)F)ccc21 (centres unmarked) [Example 122, 4-Methyl-3,4-dihydro-2H-benzo[1,4]oxazine-7-carboxylic acid 5-(1-{2-hydroxy-3-[4-(2-oxo-pyrrolidin-1-yl)-piperidin-1-yl]-propyl}-5-methanesulfonyl-4,5,6,7-tetrahydro-1H-pyrazolo[4,3-c]pyridin-3-yl)-2-trifluoromethyl-benzylamide] | 170 |
| Cc1nn(C)c2sc(C(=O)NCc3cc(-c4nn(CC(O)CN5CCC(N6CCCC6=O)CC5)c5c4CN(S(C)(=O)=O)CC5)ccc3C(F)(F)F)cc12 (centres unmarked) [Example 123, 1,3-Dimethyl-1H-thieno[2,3-c]pyrazole-5-carboxylic acid 5-(1-{2-hydroxy-3-[4-(2-oxo-pyrrolidin-1-yl)-piperidin-1-yl]-propyl}-5-methanesulfonyl-4,5,6,7-tetrahydro-1H-pyrazolo[4,3-c]pyridin-3-yl)-2-trifluoromethyl-benzylamide] | 180 |
| CS(=O)(=O)N1CCc2c(c(-c3ccc(C(F)(F)F)c(CNC(=O)c4ccc[nH]4)c3)nn2CC(O)CN2CCC(N3CCCC3=O)CC2)C1 (centres unmarked) [Example 124, 1H-Pyrrole-2-carboxylic acid 5-(1-{2-hydroxy-3-[4-(2-oxo-pyrrolidin-1-yl)-piperidin-1-yl]-propyl}-5-methanesulfonyl-4,5,6,7-tetrahydro-1H-pyrazolo[4,3-c]pyridin-3-yl)-2-trifluoromethyl-benzylamide] | 180 |
| CSCC(=O)NCc1cc(-c2nn(CCCN3CCC(N4CCCC4=O)CC3)c3c2CN(S(C)(=O)=O)CC3)ccc1C(F)(F)F [Example 125, N-[5-(5-Methanesulfonyl-1-{3-[4-(2-oxo-pyrrolidin-1-yl)-piperidin-1-yl]-propyl}-4,5,6,7-tetrahydro-1H-pyrazolo[4,3-c]pyridin-3-yl)-2-trifluoromethyl-benzyl]-2-methylsulfanyl-acetamide] | 200 |
| CS(=O)(=O)N1CCc2c(c(-c3ccc(C(F)(F)F)c(CNC(=O)c4cccnc4)c3)nn2CC(O)CN2CCC(N3CCCC3=O)CC2)C1 (centres unmarked) [Example 126, N-[5-(1-{2-Hydroxy-3-[4-(2-oxo-pyrrolidin-1-yl)-piperidin-1-yl]-propyl}-5-methanesulfonyl-4,5,6,7-tetrahydro-1H-pyrazolo[4,3-c]pyridin-3-yl)-2-trifluoromethyl-benzyl]-nicotinamide] | 210 |
| CC(C)(C)OC(=O)N1CCC(C(=O)NCc2cc(-c3nn(CC(O)CN4CCC(N5CCCC5=O)CC4)c4c3CN(S(C)(=O)=O)CC4)ccc2C(F)(F)F)CC1 (centres unmarked) [Example 127, 4-[5-(1-{2-Hydroxy-3-[4-(2-oxo-pyrrolidin-1-yl)-piperidin-1-yl]-propyl}-5-methanesulfonyl-4,5,6,7-tetrahydro-1H-pyrazolo[4,3-c]pyridin-3-yl)-2-trifluoromethyl-benzylcarbamoyl]-piperidine-1-carboxylic acid tert-butyl ester] | 220 |
| CS(=O)(=O)N1CCc2c(c(-c3ccc(C(F)(F)F)c(CNC(=O)c4ccncc4)c3)nn2CC(O)CN2CCC(N3CCCC3=O)CC2)C1 (centres unmarked) [Example 128, N-[5-(1-{2-Hydroxy-3-[4-(2-oxo-pyrrolidin-1-yl)-piperidin-1-yl]-propyl}-5-methanesulfonyl-4,5,6,7-tetrahydro-1H-pyrazolo[4,3-c]pyridin-3-yl)-2-trifluoromethyl-benzyl]-isonicotinamide] | 240 |
| CC(=O)Nc1cc(C(=O)NCc2cc(-c3nn(CC(O)CN4CCC(N5CCCC5=O)CC4)c4c3CN(S(C)(=O)=O)CC4)ccc2C(F)(F)F)ccn1 (centres unmarked) [Example 129, 2-Acetylamino-N-[5-(1-{2-hydroxy-3-[4-(2-oxo-pyrrolidin-1-yl)-piperidin-1-yl]-propyl}-5-methanesulfonyl-4,5,6,7-tetrahydro-1H-pyrazolo[4,3-c]pyridin-3-yl)-2-trifluoromethyl-benzyl]-isonicotinamide] | 250 |
| CS(=O)(=O)N1CCc2c(c(-c3ccc(C(F)(F)F)c(CNC(=O)C4CCCCCC4)c3)nn2CC(O)CN2CCC(N3CCCC3=O)CC2)C1 (centres unmarked) [Example 130, Cycloheptanecarboxylic acid 5-(1-{2-hydroxy-3-[4-(2-oxo-pyrrolidin-1-yl)-piperidin-1-yl]-propyl}-5-methanesulfonyl-4,5,6,7-tetrahydro-1H-pyrazolo[4,3-c]pyridin-3-yl)-2-trifluoromethyl-benzylamide] | 270 |
| CC(O)CC(=O)NCc1cc(-c2nn(CCCN3CCC(N4CCCC4=O)CC3)c3c2CN(S(C)(=O)=O)CC3)ccc1C(F)(F)F (centres unmarked) [Example 131, 3-Hydroxy-N-[5-(5-methanesulfonyl-1-{3-[4-(2-oxo-pyrrolidin-1-yl)-piperidin-1-yl]-propyl}-4,5,6,7-tetrahydro-1H-pyrazolo[4,3-c]pyridin-3-yl)-2-trifluoromethyl-benzyl]-butyramide] | 270 |
| CS(=O)(=O)N1CCc2c(c(-c3ccc(C(F)(F)F)c(CNC(=O)c4ccc(N5CCOCC5)nc4)c3)nn2CC(O)CN2CCC(N3CCCC3=O)CC2)C1 (centres unmarked) [Example 132, N-[5-(1-{2-Hydroxy-3-[4-(2-oxo-pyrrolidin-1-yl)-piperidin-1-yl]-propyl}-5-methanesulfonyl-4,5,6,7-tetrahydro-1H-pyrazolo[4,3-c]pyridin-3-yl)-2-trifluoromethyl-benzyl]-6-morpholin-4-yl-nicotinamide] | 340 |
| Cn1cncc1C(=O)NCc1cc(-c2nn(CC(O)CN3CCC(N4CCCC4=O)CC3)c3c2CN(S(C)(=O)=O)CC3)ccc1C(F)(F)F (centres unmarked) [Example 133, 3-Methyl-3H-imidazole-4-carboxylic acid 5-(1-{2-hydroxy-3-[4-(2-oxo-pyrrolidin-1-yl)-piperidin-1-yl]-propyl}-5-methanesulfonyl-4,5,6,7-tetrahydro-1H-pyrazolo[4,3-c]pyridin-3-yl)-2-trifluoromethyl-benzylamide] | 380 |
| CS(=O)(=O)N1CCc2c(c(-c3ccc(C(F)(F)F)c(CNC(=O)c4cncs4)c3)nn2CC(O)CN2CCC(N3CCCC3=O)CC2)C1 (centres unmarked) [Example 134, Thiazole-5-carboxylic acid 5-(1-{2-hydroxy-3-[4-(2-oxo-pyrrolidin-1-yl)-piperidin-1-yl]-propyl}-5-methanesulfonyl-4,5,6,7-tetrahydro-1H-pyrazolo[4,3-c]pyridin-3-yl)-2-trifluoromethyl-benzylamide] | 380 |
| CS(=O)(=O)N1CCc2c(c(-c3ccc(C(F)(F)F)c(CNC(=O)CN4CCCCC4)c3)nn2CCCN2CCC(N3CCCC3=O)CC2)C1 [Example 135, N-[5-(5-Methanesulfonyl-1-{3-[4-(2-oxo-pyrrolidin-1-yl)-piperidin-1-yl]-propyl}-4,5,6,7-tetrahydro-1H-pyrazolo[4,3-c]pyridin-3-yl)-2-trifluoromethyl-benzyl]-2-piperidin-1-yl-acetamide] | 410 |
| Cc1csc(C(=O)NCc2cc(-c3nn(CC(O)CN4CCC(N5CCCC5=O)CC4)c4c3CN(S(C)(=O)=O)CC4)ccc2C(F)(F)F)c1Cl (centres unmarked) [Example 136, 3-Chloro-4-methyl-thiophene-2-carboxylic acid 5-(1-{2-hydroxy-3-[4-(2-oxo-pyrrolidin-1-yl)-piperidin-1-yl]-propyl}-5-methanesulfonyl-4,5,6,7-tetrahydro-1H-pyrazolo[4,3-c]pyridin-3-yl)-2-trifluoromethyl-benzylamide] | 410 |
| Cc1ncsc1C(=O)NCc1cc(-c2nn(CC(O)CN3CCC(N4CCCC4=O)CC3)c3c2CN(S(C)(=O)=O)CC3)ccc1C(F)(F)F (centres unmarked) [Example 137, 4-Methyl-thiazole-5-carboxylic acid 5-(1-{2-hydroxy-3-[4-(2-oxo-pyrrolidin-1-yl)-piperidin-1-yl]-propyl}-5-methanesulfonyl-4,5,6,7-tetrahydro-1H-pyrazolo[4,3-c]pyridin-3-yl)-2-trifluoromethyl-benzylamide] | 410 |
| CCSC(=O)NCc1cc(-c2nn(CCCN3CCC(N4CCCC4=O)CC3)c3c2CN(S(C)(=O)=O)CC3)ccc1C(F)(F)F [Example 138, [5-(5-Methanesulfonyl-1-{3-[4-(2-oxo-pyrrolidin-1-yl)-piperidin-1-yl]-propyl}-4,5,6,7-tetrahydro-1H-pyrazolo[4,3-c]pyridin-3-yl)-2-trifluoromethyl-benzyl]-thiocarbamic acid S-ethyl ester] | 430 |
| CS(=O)(=O)N1CCc2c(c(-c3ccc(C(F)(F)F)c(CNC(=O)c4ccc5nccnc5c4)c3)nn2CC(O)CN2CCC(N3CCCC3=O)CC2)C1 (centres unmarked) [Example 139, Quinoxaline-6-carboxylic acid 5-(1-{2-hydroxy-3-[4-(2-oxo-pyrrolidin-1-yl)-piperidin-1-yl]-propyl}-5-methanesulfonyl-4,5,6,7-tetrahydro-1H-pyrazolo[4,3-c]pyridin-3-yl)-2-trifluoromethyl-benzylamide] | 490 |
